The values that follow come from patent US12358893B2, “Metalloenzyme inhibitor compounds” (Corxel Pharmaceuticals Hong Kong Limited, priority 2019, dated 2025).

For test [1], the target named is T1, recombinant human CYP11B2 (Homo sapiens, UniProt P19099).
T1 construct: made in house; host or cells: V79-4 cells (Chinese hamster lung fibroblasts); enzyme-enriched microsomal fraction of the lysate
T1 sequence (P19099 25-503): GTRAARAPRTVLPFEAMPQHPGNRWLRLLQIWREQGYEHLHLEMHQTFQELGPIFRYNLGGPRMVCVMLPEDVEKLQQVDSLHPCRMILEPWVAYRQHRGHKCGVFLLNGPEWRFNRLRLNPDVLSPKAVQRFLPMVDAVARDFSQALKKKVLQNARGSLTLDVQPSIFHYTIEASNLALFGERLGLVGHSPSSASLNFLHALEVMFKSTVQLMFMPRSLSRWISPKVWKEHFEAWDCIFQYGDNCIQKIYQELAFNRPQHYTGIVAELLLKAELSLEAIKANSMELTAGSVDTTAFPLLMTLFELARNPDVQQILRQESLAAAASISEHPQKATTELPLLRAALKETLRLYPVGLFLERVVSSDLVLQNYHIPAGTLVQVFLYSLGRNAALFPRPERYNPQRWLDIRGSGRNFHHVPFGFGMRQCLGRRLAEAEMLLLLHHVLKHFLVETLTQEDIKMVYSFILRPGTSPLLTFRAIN
Put plainly: CYP11B2 enzyme assay with enzyme enriched microsomes, aldosterone measured by LC-MS. It is filed as biochemical. As to conditions: microsomes from V79-4 cells; 11-deoxycorticosterone at Km; read-out: hCYP11B2 IC50. On the procedure: (§1) V79-4 cells expressing recombinant andrenodoxin and andrenodoxin reductase with either recombinant human CYP11B2 or CYP11B1 were prepared according to methods previously described (LaSala et al 2009 Anal Bioch 394:56-61). An enzyme enriched microsomal fraction was prepared from cellular lysates and subsequently used as the enzyme source for determining inhibitor IC50s. The substrate Km values were experimentally determined for 11-deoxycorticosterone (CYP11B2 substrate) and 11-deoxycortisol (CYP11B1 substrate). Enzyme assays for inhibitor screening employed CYP11B2 and CYP11B1 enzyme enriched microsomes and were run at the Km of the respective substrates. Products of the enzyme reactions, aldosterone for CYP11B2 or cortisol for CYP11B1, were measured by LC-MS. Assays were run under conditions of less than 20% substrate turnover. Inhibitor IC50s were generated by determining the product formation in the absence or presence of inhibitor at various concentrations. In the absence of the test compound, the product formed (Pt) in each data set was defined as 100% activity. In the absence of enzyme, the product formed (Pb) in each data set was defined as 0% activity. The percent activity in the presence of each inhibitor was calculated according to the following equation: % activity=(P−Pb)/(Pt−Pb), where P=the product formed in the presence of the inhibitor. The IC50 value was defined as the inhibitor concentration causing a 50% decrease in activity relative to the no inhibitor control reaction.

Test [2] addresses T2, recombinant human CYP11B1 (Homo sapiens, UniProt P15538).
T2 construct: made in house; host or cells: V79-4 cells (Chinese hamster lung fibroblasts); enzyme-enriched microsomal fraction of the lysate
T2 sequence (P15538 25-503): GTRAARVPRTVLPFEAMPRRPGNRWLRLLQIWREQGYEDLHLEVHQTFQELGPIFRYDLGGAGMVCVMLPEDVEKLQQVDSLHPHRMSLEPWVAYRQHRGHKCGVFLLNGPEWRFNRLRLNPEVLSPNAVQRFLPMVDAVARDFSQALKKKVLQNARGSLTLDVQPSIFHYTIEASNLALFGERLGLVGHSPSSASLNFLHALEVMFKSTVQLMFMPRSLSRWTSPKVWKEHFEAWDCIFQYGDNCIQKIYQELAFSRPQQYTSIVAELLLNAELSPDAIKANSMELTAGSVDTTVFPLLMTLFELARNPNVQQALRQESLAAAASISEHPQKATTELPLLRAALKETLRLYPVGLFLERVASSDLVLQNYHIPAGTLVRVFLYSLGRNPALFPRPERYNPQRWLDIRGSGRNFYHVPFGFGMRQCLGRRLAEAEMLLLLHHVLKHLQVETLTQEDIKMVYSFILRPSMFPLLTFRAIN
Put plainly: CYP11B1 enzyme assay with enzyme enriched microsomes, cortisol measured by LC-MS. It is filed as biochemical. As to conditions: microsomes from V79-4 cells; 11-deoxycortisol at Km; read-out: hCYP11B1 IC50. Here is the method: as §1

Some results are limits rather than exact numbers.

By IC50 is commonly meant the concentration at which inhibition is half-maximal. In the case of `N#Cc1ccc2nc(-n3cnc4ccc(OC(F)F)cc43)n(C3CC3)c2c1` [Example 50, 1′-cyclopropyl-6-(difluoromethoxy)-1′H-[1,2′-bibenzo[d]imidazole]-6′-carbonitrile], the values for the IC50 in test [1] and in test [2] were 1 to 100 nM and 1000 to 10000 nM, respectively.
Take `N#Cc1ccc2nc(-n3cnc4cnccc43)n(C3CC3)c2c1` [Example 43, 1-cyclopropyl-2-(1H-imidazo[4,5-c]pyridin-1-yl)-1H-benzo[d]imidazole-6-carbonitrile]: the IC50 is 1 to 100 nM in test [1] and > 10000 nM in test [2].
Consider `CS(=O)(=O)Nc1ccc2ncn(-c3nc4ccc(F)c(F)c4n3C3CC3)c2c1` [Example 33, N-(1′-cyclopropyl-6′,7′-difluoro-1′H-[1,2′-bibenzo[d]imidazol]-6-yl) methanesulfonamide], for which the values for the IC50 in test [1] and in test [2] were 1000 to 10000 nM and > 10000 nM, respectively.
For the compound `CS(=O)(=O)Nc1ccc2ncn(-c3nc4cc(F)c(F)cc4n3C3CC3)c2c1` [Example 45, N-(1′-cyclopropyl-5′,6′-difluoro-1′H-[1,2′-bibenzo[d]imidazol]-6-yl) methanesulfonamide], the IC50 in test [1] was 1000 to 10000 nM; in test [2], > 10000 nM.
For `Fc1cc2nc(-n3cnc4ccncc43)n(C3CC3)c2cc1F` [Example 36, 3-(1-cyclopropyl-5,6-difluoro-1H-benzo[d]imidazol-2-yl)-3H-imidazo[4,5-c] pyridine], the IC50 in test [1] was in the range of 1 to 100 nM; in test [2] it was 1000 to 10000 nM.
The corresponding values for `Fc1cc2nc(-n3cnc4cnccc43)n(C3CC3)c2cc1F` [Example 35, 1-(1-cyclopropyl-5,6-difluoro-1H-benzo[d]imidazol-2-yl)-1H-imidazo[4,5-c]pyridine] are 1 to 100 nM and 1000 to 10000 nM.
Turning to `Fc1ccc2nc(-n3cnc4cc(F)c(F)cc43)n(C3CC3)c2c1` [Example 4, 1′-cyclopropyl-5,6,6′-trifluoro-1′H-1,2′-bibenzo[d]imidazole], the IC50 was 1 to 100 nM in test [1] and 1000 to 10000 nM in test [2].
The corresponding values for `CS(=O)(=O)Nc1ccc2c(c1)ncn2-c1nc2ccc(F)c(F)c2n1C1CC1` [Example 31, N-(1′-cyclopropyl-6′,7′-difluoro-1′H-[1,2′-bibenzo[d]imidazol]-5-yl) methanesulfonamide] are 1 to 100 nM and > 10000 nM.
For `Fc1cc2nc(-n3cnc4cc(C(F)F)ncc43)n(C3CC3)c2cc1F` [Example 41, 3-(1-cyclopropyl-5,6-difluoro-1H-benzo[d]imidazol-2-yl)-6-(difluoromethyl)-3H-imidazo[4,5-c]pyridine], in that order: 1 to 100 nM and 1000 to 10000 nM.
The corresponding values for `N#Cc1ccc2ncn(-c3nc4cc(F)c(F)cc4n3C3CC3)c2c1` [Example 24, 1′-cyclopropyl-5′,6′-difluoro-1′H-[1,2′-bibenzo[d]imidazole]-6-carbonitrile] are 100 to 1000 nM and > 10000 nM.
For `Fc1ccc2nc(-n3cnc4cc(C(F)(F)F)ccc43)n(C3CC3)c2c1` [Example 20, 1′-cyclopropyl-6′-fluoro-5-(trifluoromethyl)-1′H-1,2′-bibenzo[d]imidazole], the figures for the IC50 in test [1] and in test [2] were 1 to 100 nM and 100 to 1000 nM, respectively.
As for `Fc1cc2nc(-n3cnc4cnc(C(F)F)cc43)n(C3CC3)c2cc1F` [Example 40, 1-(1-cyclopropyl-5,6-difluoro-1H-benzo[d]imidazol-2-yl)-6-(difluoromethyl)-1H-imidazo[4,5-c]pyridine], the IC50 was 1 to 100 nM in test [1] and > 10000 nM in test [2].
For `Fc1ccc2c(c1)ncn2-c1nc2ccc(F)cc2n1C1CC1` [Example 18, 1′-cyclopropyl-5,6′-difluoro-1′H-1,2′-bibenzo[d]imidazole], in that order: 1 to 100 nM and 100 to 1000 nM.
The corresponding values for `N#Cc1ccc2c(c1)ncn2-c1nc2ccc(F)cc2n1C1CC1` [Example 6, 1′-cyclopropyl-6′-fluoro-1′H-[1,2′-bibenzo[d]imidazole]-5-carbonitrile] are 1 to 100 nM and 1000 to 10000 nM.
The corresponding values for `Cc1ccc2c(c1)ncn2-c1nc2ccc(F)cc2n1C1CC1` [Example 8, 1′-cyclopropyl-6′-fluoro-5-methyl-1′H-1,2′-bibenzo[d]imidazole] are 1 to 100 nM and 100 to 1000 nM.
For `Fc1ccc2nc(-n3cnc4c(F)c(F)ccc43)n(C3CC3)c2c1` [Example 3, 1′-cyclopropyl-4,5,6′-trifluoro-1′H-1,2′-bibenzo[d]imidazole], the IC50 was 1000 to 10000 nM in test [1] and > 10000 nM in test [2].
For `Fc1ccc2nc(-n3cnc4ccc(OC(F)(F)F)cc43)n(C3CC3)c2c1` [Example 28, 1′-cyclopropyl-6′-fluoro-6-(trifluoromethoxy)-1′H-1,2′-bibenzo[d]imidazole], in that order: 100 to 1000 nM and > 10000 nM.
The corresponding values for `Fc1cc2ncn(-c3nc4ccc(Cl)nc4n3C3CC3)c2cc1F` [Example 29, 5-chloro-3-cyclopropyl-2-(5,6-difluoro-1H-benzo[d]imidazol-1-yl)-3H-imidazo[4,5-b] pyridine] are 1 to 100 nM and 1000 to 10000 nM.
The corresponding values for `CS(=O)(=O)Nc1ccc2ncn(-c3nc4ccc(C#N)cc4n3C3CC3)c2c1` [Example 48, N-(6′-cyano-1′-cyclopropyl-1′H-[1,2′-bibenzo[d]imidazol]-6-yl) methanesulfonamide] are 1000 to 10000 nM and > 10000 nM.
On to `O=C(O)c1ccc2c(c1)ncn2-c1nc2cc(F)c(F)cc2n1C1CC1` [Example 44, 1′-cyclopropyl-5′,6′-difluoro-1′H-[1,2′-bibenzo[d]imidazole]-5-carboxylic acid], for which the figures for the IC50 in test [1] and in test [2] were 1000 to 10000 nM and > 10000 nM, respectively.
The corresponding values for `Fc1cc2nc(-n3cnc4ncccc43)n(C3CC3)c2cc1F` [Example 34, 1-(1-cyclopropyl-5,6-difluoro-1H-benzo[d]imidazol-2-yl)-1H-imidazo[4,5-b]pyridine] are 1000 to 10000 nM and > 10000 nM.
The corresponding values for `Fc1cc2ncn(-c3nc4ccc(F)c(F)c4n3C3CC3)c2cc1F` [Example 15, 1′-cyclopropyl-5,6,6′,7′-tetrafluoro-1′H-1,2′-bibenzo[d]imidazole] are 1 to 100 nM and 1000 to 10000 nM.
